Data as given in patent publication US9440952B2, “Compounds inhibiting leucine-rich repeat kinase enzyme activity” (Merck Sharp & Dohme Corp., priority 2013, dated 2016).
Where two headings read alike, the source gives them in different places.

Biological target: T1, LRRK2(G2019S mutation, GST-LRRK2(amino acids 970-2527)) (Homo sapiens, UniProt Q5S007, G2019S)
T1 construct: GST-LRRK2(amino acids 970-2527); GST (N); purchased Life Technologies Corporation
Assay: LRRK2 Km ATP LanthaScreen Assay
Assay type: biochemical
Settings: read-out: LRRK2 IC50
Method in brief: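 IC50 values are means of several runs in the Km-ATP LanthaScreen format, analysed by curve fitting of the LanthaScreen read-out.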

[1] = Km ATP LanthaScreen Assay, LRRK2 G2019S, mean IC50 values
[2] = Km ATP LanthaScreen, mean IC50 of several tests

T1 sequence (Q5S007 970-2527 G2019S): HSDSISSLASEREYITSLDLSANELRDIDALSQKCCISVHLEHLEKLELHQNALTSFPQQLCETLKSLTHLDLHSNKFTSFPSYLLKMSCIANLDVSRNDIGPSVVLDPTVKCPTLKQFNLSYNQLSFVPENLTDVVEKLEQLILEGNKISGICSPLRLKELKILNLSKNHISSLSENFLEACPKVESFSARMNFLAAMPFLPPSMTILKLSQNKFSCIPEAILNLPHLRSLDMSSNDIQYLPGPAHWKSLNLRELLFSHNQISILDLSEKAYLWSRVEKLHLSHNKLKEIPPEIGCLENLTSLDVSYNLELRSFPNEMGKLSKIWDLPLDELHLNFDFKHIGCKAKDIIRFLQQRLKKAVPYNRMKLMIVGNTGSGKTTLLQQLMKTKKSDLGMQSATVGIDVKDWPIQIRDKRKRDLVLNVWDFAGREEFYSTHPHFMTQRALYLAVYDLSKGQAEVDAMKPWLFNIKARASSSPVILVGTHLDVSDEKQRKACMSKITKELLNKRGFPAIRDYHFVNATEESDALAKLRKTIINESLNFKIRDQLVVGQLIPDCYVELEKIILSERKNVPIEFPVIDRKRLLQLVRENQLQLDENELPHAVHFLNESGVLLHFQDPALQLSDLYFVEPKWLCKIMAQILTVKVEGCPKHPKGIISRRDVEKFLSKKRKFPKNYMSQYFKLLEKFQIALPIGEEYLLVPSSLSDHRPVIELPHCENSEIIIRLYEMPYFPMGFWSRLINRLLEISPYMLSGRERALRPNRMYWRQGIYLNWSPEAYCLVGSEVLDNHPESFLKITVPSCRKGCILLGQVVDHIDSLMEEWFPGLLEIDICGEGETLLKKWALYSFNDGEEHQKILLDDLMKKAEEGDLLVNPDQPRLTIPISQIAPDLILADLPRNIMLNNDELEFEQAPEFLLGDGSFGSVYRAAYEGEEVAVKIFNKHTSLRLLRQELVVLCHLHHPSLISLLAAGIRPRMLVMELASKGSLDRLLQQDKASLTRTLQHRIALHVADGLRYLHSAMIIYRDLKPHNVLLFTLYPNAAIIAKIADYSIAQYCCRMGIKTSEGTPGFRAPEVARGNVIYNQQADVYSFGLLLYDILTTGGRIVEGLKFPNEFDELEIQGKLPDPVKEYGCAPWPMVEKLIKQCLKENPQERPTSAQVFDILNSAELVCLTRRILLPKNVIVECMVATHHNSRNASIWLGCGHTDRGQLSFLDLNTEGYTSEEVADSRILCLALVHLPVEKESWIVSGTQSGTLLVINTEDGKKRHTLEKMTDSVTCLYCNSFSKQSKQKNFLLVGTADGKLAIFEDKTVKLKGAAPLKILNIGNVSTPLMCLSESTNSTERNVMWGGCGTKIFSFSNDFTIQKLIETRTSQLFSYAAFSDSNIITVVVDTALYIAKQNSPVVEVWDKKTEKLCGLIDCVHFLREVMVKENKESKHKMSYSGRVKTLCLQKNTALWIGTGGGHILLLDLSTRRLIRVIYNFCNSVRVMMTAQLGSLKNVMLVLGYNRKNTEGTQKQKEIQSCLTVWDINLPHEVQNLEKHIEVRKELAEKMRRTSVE

`CCOc1ccc2[nH]nc(-c3ccnc(N4CC5C(C4)C5(C#N)c4ccccn4)c3)c2c1` (centres unmarked) [Example 229] showed an IC50 [1] of 113 nM.
With `CCOc1ccc2[nH]nc(-c3ccnc(N4CCC4)c3)c2c1` [Example 230] the IC50 [1] was 29.4 nM.
Work on `OC1CCN(c2cc(-c3n[nH]c4ccc(OC(F)(F)F)cc34)ccn2)CC1` [Example 231] yielded an IC50 [1] of 82.7 nM.
Work on `FC(F)(F)Oc1ccc2[nH]nc(-c3ccnc(N4CCCCC4)c3)c2c1` [Example 232] yielded an IC50 [1] of 279 nM.
For `FC(F)(F)Oc1ccc2[nH]nc(-c3ccnc(N4CCCC4)c3)c2c1` [Example 233], the IC50 [1] was 130 nM.
With `CN1CCN(c2cc(-c3n[nH]c4ccc(OC(F)(F)F)cc34)ccn2)CC1` [Example 234] the IC50 [1] was 82.5 nM.
`FC(F)(F)Oc1ccc2[nH]nc(-c3ccnc(N4CCN(c5ncccn5)CC4)c3)c2c1` [Example 235] was tested, and the IC50 [1] was 476 nM.
Work on `CS(=O)(=O)C1CN(c2cc(-c3n[nH]c4ccc(OC(F)(F)F)cc34)ccn2)C1` [Example 236] yielded an IC50 [1] of 106 nM.
Compound `FC(F)(F)CN1CCN(c2cc(-c3n[nH]c4ccc(OC(F)(F)F)cc34)ccn2)CC1` [Example 237] has an IC50 [1] of 279 nM.
Compound `CO[C@H]1CN(c2cc(-c3n[nH]c4ccc(OC(F)(F)F)cc34)ccn2)C[C@@H]1O` [Example 238] has an IC50 [1] of 165 nM.
With `FC(F)(F)Oc1ccc2[nH]nc(-c3ccnc(N4CCN(n5cccn5)CC4)c3)c2c1` [Example 239] the IC50 [1] was 233 nM.
Work on `F[C@@H]1CCN(c2cc(-c3n[nH]c4ccc(OC(F)(F)F)cc34)ccn2)C1` [Example 240] yielded an IC50 [1] of 206 nM.
`FC(F)(F)Oc1ccc2[nH]nc(-c3ccnc(N4CC(n5cccn5)C4)c3)c2c1` [Example 241] was tested, and the IC50 [1] was 315 nM.
Compound `FC1(F)CCN(c2cc(-c3n[nH]c4ccc(OC(F)(F)F)cc34)ccn2)CC1` [Example 243] has an IC50 [1] of 1060 nM.
Work on `FC(F)(F)Oc1ccc2[nH]nc(-c3ccnc(N4CCN(C5CC5)CC4)c3)c2c1` [Example 244] yielded an IC50 [1] of 188 nM.
For `FC1(F)CCN(c2cc(-c3n[nH]c4ccc(OC(F)(F)F)cc34)ccn2)C1` [Example 245], the IC50 [1] was 1490 nM.
Compound `COC1CN(c2cc(-c3n[nH]c4ccc(OC(F)(F)F)cc34)ccn2)C1` [Example 246] has an IC50 [1] of 289 nM.
`FC1(F)CN(c2cc(-c3n[nH]c4ccc(OC(F)(F)F)cc34)ccn2)C1` [Example 247] was tested, and the IC50 [1] was 369 nM.
With `OC[C@H]1CCN(c2cc(-c3n[nH]c4ccc(OC(F)(F)F)cc34)ccn2)C1` [Example 248] the IC50 [1] was 96 nM.
Compound `CCc1nnc2n1CCN(c1cc(-c3n[nH]c4ccc(OC(F)(F)F)cc34)ccn1)C2` [Example 249] has an IC50 [1] of 190 nM.
`CO[C@@H]1CCN(c2cc(-c3n[nH]c4ccc(OC(F)(F)F)cc34)ccn2)C1` [Example 250] was tested, and the IC50 [1] was 854 nM.
`Cc1nc2c(o1)CCN(c1cc(-c3n[nH]c4ccc(OC(F)(F)F)cc34)ccn1)C2` [Example 251] showed an IC50 [1] of 431 nM.
Compound `FC(F)(F)Oc1ccc2[nH]nc(-c3ccnc(N4CCc5nc(C6CC6)oc5C4)c3)c2c1` [Example 252] has an IC50 [1] of 700 nM.
Work on `COC1(C)CN(c2cc(-c3n[nH]c4ccc(OC(F)(F)F)cc34)ccn2)C1` [Example 253] yielded an IC50 [1] of 201 nM.
`Oc1ccc2[nH]nc(-c3ccnc(N4CCCCC4)c3)c2c1` [Example 254] showed an IC50 [1] of 10.1 nM.
`CS(=O)(=O)C1CN(c2cc(-c3n[nH]c4ccc(O)cc34)ccn2)C1` [Example 255] gave an IC50 [1] of 30.8 nM.
Work on `CC(C)Oc1ccc2[nH]nc(-c3ccnc(NS(=O)(=O)c4cccc(F)c4)c3)c2c1` [Example 256] yielded an IC50 [2] of 42.5 nM.
Compound `COc1cccc(S(=O)(=O)Nc2cc(-c3n[nH]c4ccc(OC(C)C)cc34)ccn2)c1` [Example 257] has an IC50 [2] of 78.4 nM.
For `CC(C)Oc1ccc2[nH]nc(-c3ccnc(NS(=O)(=O)C4CC4)c3)c2c1` [Example 259], the IC50 [2] was 63.2 nM.
For `CC(C)Oc1ccc2[nH]nc(-c3ccnc(NS(=O)(=O)c4ccc5c(c4)OCCO5)c3)c2c1` [Example 260], the IC50 [2] was 52.3 nM.
Compound `CC(C)Oc1ccc2[nH]nc(-c3ccnc(NS(=O)(=O)Cc4ccccn4)c3)c2c1` [Example 261] has an IC50 [2] of 124 nM.
`CC(C)Oc1ccc2[nH]nc(-c3ccnc(NS(=O)(=O)c4ccc5c(c4)N(C)C(=O)CO5)c3)c2c1` [Example 262] showed an IC50 [2] of 43.4 nM.
`CC(C)Oc1ccc2[nH]nc(-c3ccnc(NS(=O)(=O)c4ccc(C5(C#N)CC5)cc4)c3)c2c1` [Example 263] showed an IC50 [2] of 60.8 nM.
`CC(C)Oc1ccc2[nH]nc(-c3ccnc(NS(=O)(=O)c4ccc(C(C)(C)C#N)cc4)c3)c2c1` [Example 264] gave an IC50 [2] of 68.8 nM.
`Cn1cc(-c2ccc3[nH]nc(-c4ccnc(N5CCN(CCO)CC5)c4)c3c2)cn1` [Example 265] gave an IC50 [2] of 1.7 nM.
In the case of `Cn1cc(-c2ccc3[nH]nc(-c4ccnc(N5CCCCC5)c4)c3c2)cn1` [Example 266], the IC50 [2] is reported as 2.4 nM.
With `Cn1cc(-c2ccc3[nH]nc(-c4ccnc(N5CCCC5)c4)c3c2)cn1` [Example 267] the IC50 [2] was 2.9 nM.
`CO[C@H]1CN(c2cc(-c3n[nH]c4ccc(-c5cnn(C)c5)cc34)ccn2)C[C@@H]1O` [Example 269] gave an IC50 [2] of 4.2 nM.
`Cn1cc(-c2ccc3[nH]nc(-c4ccnc(N5CCC(n6cncn6)CC5)c4)c3c2)cn1` [Example 270] gave an IC50 [2] of 2.2 nM.
For `Cn1cc(-c2ccc3[nH]nc(-c4ccnc(N5C[C@H](F)[C@@H](F)C5)c4)c3c2)cn1` [Example 271], the IC50 [2] was 2.2 nM.
Work on `Cn1cc(-c2ccc3[nH]nc(-c4ccnc(N5CCc6oc(C7CC7)nc6C5)c4)c3c2)cn1` [Example 272] yielded an IC50 [2] of 5.8 nM.
`Cn1cc(-c2ccc3[nH]nc(-c4ccnc(N5CCC(F)(F)CC5)c4)c3c2)cn1` [Example 273] showed an IC50 [2] of 3 nM.
`Cn1cc(-c2ccc3[nH]nc(-c4ccnc(N5CC(F)(F)C5)c4)c3c2)cn1` [Example 274] showed an IC50 [2] of 4.2 nM.
In the case of `Cc1noc(C2CN(c3cc(-c4n[nH]c5ccc(-c6cnn(C)c6)cc45)ccn3)C2)n1` [Example 275], the IC50 [2] is reported as 5.6 nM.
`Cn1cc(-c2ccc3[nH]nc(-c4ccnc(N5CCN(c6nnc(C7CC7)o6)CC5)c4)c3c2)cn1` [Example 276] gave an IC50 [2] of 2.7 nM.
Compound `Cn1cc(-c2ccc3[nH]nc(-c4ccnc(N5CCN(c6ccncn6)CC5)c4)c3c2)cn1` [Example 277] has an IC50 [2] of 2.1 nM.
With `Cn1cc(-c2ccc3[nH]nc(-c4ccnc(N5CC[C@H](F)C5)c4)c3c2)cn1` [Example 278] the IC50 [2] was 1.9 nM.
Work on `CN1CCN(c2cc(-c3n[nH]c4ccc(-c5cnn(C)c5)cc34)ccn2)CC1=O` [Example 279] yielded an IC50 [2] of 2.9 nM.
In the case of `CC(C)Oc1ccc2[nH]nc(-c3ccnc(N4CC5CCC(C4)O5)c3)c2c1` [Example 280], the IC50 [2] is reported as 5 nM.
For `[2H]C1([2H])OC([2H])([2H])C([2H])([2H])N(c2cc(-c3n[nH]c4ccc(OC(C)C)cc34)ccn2)C1([2H])[2H]` [Example 281], the IC50 [1] was 1.4 nM.
`CC(C)Oc1ccc2[nH]nc(-c3ccnc(N4C5CCC4COC5)c3)c2c1` [Example 282] showed an IC50 [1] of 7.7 nM.
Work on `CC(C)Oc1ccc2[nH]nc(-c3ccnc(N4CC5(COC5)C4)c3)c2c1` [Example 283] yielded an IC50 [2] of 5.9 nM.
`CC(C)Oc1ccc2[nH]nc(-c3ccnc(N4CC(C(=O)O)C4)c3)c2c1` [Example 284] showed an IC50 [2] of 2.4 nM.
With `CC(C)Oc1ccc2[nH]nc(-c3ccnc(N4CCC(F)(F)C4)c3)c2c1` [Example 286] the IC50 [2] was 5.5 nM.
Compound `CC(C)Oc1ccc2[nH]nc(-c3ccnc(N4CCC(F)(F)CC4)c3)c2c1` [Example 287] has an IC50 [2] of 14 nM.
For `CCOc1ccc2[nH]nc(-c3ccnc(N4CCC(F)(F)CC4)c3)c2c1` [Example 288], the IC50 [2] was 22 nM.
In the case of `COC1CCN(c2cc(-c3n[nH]c4ccc(OC(C)C)cc34)ccn2)CC1` [Example 290], the IC50 [2] is reported as 6 nM.
With `CCC(C)Oc1ccc2[nH]nc(-c3ccnc(N4CCOCC4)c3)c2c1` (centres unmarked) [Example 291] the IC50 [2] was 2.2 nM.
For `COCCNc1cc(-c2n[nH]c3ccc(OC(C)C)cc23)ccn1` [Example 292], the IC50 [2] was 5.9 nM.
With `CCCOc1ccc2[nH]nc(-c3ccnc(N4CCN(C)C(=O)C4)c3)c2c1` [Example 293] the IC50 [2] was 15 nM.
`CCCOc1ccc2[nH]nc(-c3ccnc(N4CCN(C)CC4)c3)c2c1` [Example 294] gave an IC50 [2] of 17 nM.
With `CCCOc1ccc2[nH]nc(-c3ccnc(N4CCN(S(C)(=O)=O)CC4)c3)c2c1` [Example 295] the IC50 [2] was 17 nM.
For `CCOc1ccc2[nH]nc(-c3ccnc(N4CCC(OC)CC4)c3)c2c1` [Example 296], the IC50 [2] was 7.5 nM.
With `CCOc1ccc2[nH]nc(-c3ccnc(N4CCCC4)c3)c2c1` [Example 297] the IC50 [2] was 7.3 nM.
Work on `CCOc1ccc2[nH]nc(-c3ccnc(N4CCS(=O)(=O)CC4)c3)c2c1` [Example 298] yielded an IC50 [2] of 51 nM.
Work on `CC(C)Oc1ccc2[nH]nc(-c3ccnc(N4CCN(CCO)CC4)c3)c2c1` [Example 299] yielded an IC50 [2] of 2 nM.
Compound `CCCOc1ccc2[nH]nc(-c3ccnc(N4CCCCC4)c3)c2c1` [Example 300] has an IC50 [2] of 31 nM.
Compound `CCCOc1ccc2[nH]nc(-c3ccnc(N4CCOCC4)c3)c2c1` [Example 301] has an IC50 [2] of 12 nM.
With `CC(C)Oc1ccc2[nH]nc(-c3ccnc(N4CCCC4=O)c3)c2c1` [Example 302] the IC50 [2] was 24 nM.
With `CC(C)Oc1ccc2[nH]nc(-c3ccnc(N4CCOC4=O)c3)c2c1` [Example 303] the IC50 [2] was 16 nM.
With `Cn1cc(-c2ccc3[nH]nc(-c4ccnc(N5CCC(C(=O)O)CC5)c4)c3c2)cn1` [Example 304] the IC50 [2] was 3.6 nM.
`COCC(C)Oc1ccc2[nH]nc(-c3ccnc(N4CCOCC4)c3)c2c1` (centres unmarked) [Example 305] was tested, and the IC50 [2] was 5.4 nM.
`FC1CN(c2cc(-c3n[nH]c4ccc(-c5cccnc5)cc34)ccn2)C1` [Example 306] gave an IC50 [2] of 2.9 nM.
Work on `Cc1ncc(-c2ccc3[nH]nc(-c4ccnc(N5CC(F)C5)c4)c3c2)n1C` [Example 307] yielded an IC50 [2] of 2.1 nM.
`Cc1nnc(-c2ccc3[nH]nc(-c4ccnc(N5CC(F)C5)c4)c3c2)o1` [Example 308] was tested, and the IC50 [2] was 4.9 nM.
With `Cn1cnnc1-c1ccc2[nH]nc(-c3ccnc(N4CC(F)C4)c3)c2c1` [Example 309] the IC50 [2] was 1.8 nM.
`Cc1ncc(-c2cc3c(-c4ccnc(N5CC(F)C5)c4)n[nH]c3cc2F)n1C` [Example 310] showed an IC50 [2] of 95 nM.
`CC(C)Oc1ccc2[nH]nc(-c3ccnc(N4CCN(C)C(=O)C4)c3)c2c1` [Example 312] gave an IC50 [2] of 2.6 nM.
`Cn1cncc1-c1ccc2[nH]nc(-c3ccnc(N4CCOCC4)c3)c2c1` [Example 313] was tested, and the IC50 [2] was < 0.6 nM.
With `COc1cccc(F)c1-c1ccc2[nH]nc(-c3ccnc(N4CCOCC4)c3)c2c1` [Example 314] the IC50 [2] was < 0.6 nM.
